Measurements taken from patent US12178878B2, “Amyloid peptide scaffolds coordinate with Alzheimer's disease drugs” (The University of Massachusetts, priority 2018, dated 2024).
Like-named read-outs stand apart in the source and are kept apart here.

How the values were obtained:
Assay type in all cases: binding
[1] = system: […] (SEQ ID NO: 3) amyloid peptide; experiment: Amyloid peptide/inhibitor coordination in dilute solution (1 mg/mL), drug captured after pellet washings; settings: for AD compound captured, Wash 1 / AD compound captured, Wash 2 / AD compound captured, Wash 3: 150 μM inhibitor loaded; for AD compound captured, Wash 1: 1st pellet wash; for AD compound captured, Wash 2: 2nd pellet wash; for AD compound captured, Wash 3: 3rd pellet wash; for fraction of the 150 μM loaded drug incorporated into the peptide: UV-Vis, first wash
Procedure: Amyloid Peptide/Inhibitor Coordination Studies in Dilute Solutions. […] Subsequently, 1 mL of DI water was added to wash the pellet (followed by vortexing until obtaining a homogenous dispersion) in order to remove any unbound inhibitor. The samples were then centrifuged again at the same conditions so as to pelletize the amyloid materials, and the supernatant was decanted. Another 1 mL of DI water was then added into the pellet, the mixture was vortexed, and the physically bound inhibitor into the dilute amyloid peptide dispersions was quantified by UV-Vis between 200-600 nm and MS. This step is denoted as wash 1 in our study. Two additional pellet purification cycles were realized with replacement of the decanted volume each time with 1 mL of fresh DI water (denoted as wash 2 and wash 3 respectively). The inhibitor-containing peptides amyloids were normalized at 400 nm over the respective no inhibitor-containing amyloid peptides at the specific washing step, and the measured inhibitor peak values (at 315 nm and 323 nm) were subtracted from that of the amyloid peptide carriers at the same wavelength and concentration. The amount of inhibitors coordinated with the amyloid peptide carriers was quantified based on a calibration curve by both UV-Vis and MS.
The peak at 315 nm was selected for inhibitor quantification due the absence of peaks at that range for both peptides. […] However, the peak at 315 nm was selected for inhibitor quantification, and the following equation was used for both peptides: A315=A315 ([…]/Donepezil)−A315 ([…])
The peak at 323 nm was used for inhibitor quantification due the absence of peaks at that range for both peptides.

[2] = system: […] (SEQ ID NO: 4) amyloid peptide; settings: for AD compound captured, Wash 1 / AD compound captured, Wash 2 / AD compound captured, Wash 3: 150 μM inhibitor loaded; for AD compound captured, Wash 1: 1st pellet wash; for AD compound captured, Wash 2: 2nd pellet wash; for AD compound captured, Wash 3: 3rd pellet wash; for fraction of the 150 μM loaded drug incorporated into the peptide: UV-Vis, first wash
Procedure: Amyloid Peptide/Inhibitor Coordination Studies in Dilute Solutions. […]. As a negative control, 1 mL of 0.1 M PBS buffer was added. The mixtures were vortexed and sonicated to homogenously disperse any solid aggregates and stirred overnight to allow for coordination. The mixtures were transferred to 2 mL Eppendorf tubes and centrifuged for 15 mins at 4,400 rpm (14° C.) to pelletize the amyloid bound-inhibitors, and the supernatant was decanted. Subsequently, 1 mL of DI water was added to wash the pellet (followed by vortexing until obtaining a homogenous dispersion) in order to remove any unbound inhibitor. The samples were then centrifuged again at the same conditions so as to pelletize the amyloid materials, and the supernatant was decanted. Another 1 mL of DI water was then added into the pellet, the mixture was vortexed, and the physically bound inhibitor into the dilute amyloid peptide dispersions was quantified by UV-Vis between 200-600 nm and MS. This step is denoted as wash 1 in our study. Two additional pellet purification cycles were realized with replacement of the decanted volume each time with 1 mL of fresh DI water (denoted as wash 2 and wash 3 respectively). The inhibitor-containing peptides amyloids were normalized at 400 nm over the respective no inhibitor-containing amyloid peptides at the specific washing step, and the measured inhibitor peak values (at 315 nm and 323 nm) were subtracted from that of the amyloid peptide carriers at the same wavelength and concentration. The amount of inhibitors coordinated with the amyloid peptide carriers was quantified based on a calibration curve by both UV-Vis and MS.
. The peak at 315 nm was selected for inhibitor quantification due the absence of peaks at that range for both peptides. […]. However, the peak at 315 nm was selected for inhibitor quantification, and the following equation was used for both peptides: A315=A315 ([…]/Donepezil)−A315 ([…])
[…]. The peak at 323 nm was used for inhibitor quantification due the absence of peaks at that range for both peptides. […].

[3] = system: […] (SEQ ID NO: 4) amyloid peptide; settings: for capturing efficiency: relative to 2nd pellet wash, UV-Vis; for AD compound captured, Wash 1 / AD compound captured, Wash 2 / AD compound captured, Wash 3: 1000 μM inhibitor solution added; for AD compound captured, Wash 1: 1st pellet wash; for AD compound captured, Wash 2: 2nd pellet wash; for AD compound captured, Wash 2 / AD compound captured, Wash 3: room temperature; for AD compound captured, Wash 3: 3rd pellet wash
Procedure: Amyloid Fibrils Preparation and Characterization. For the formation of fibrils, the amyloid peptides were dispersed in DI water at a 10 mg/ml, vortexed, heated at 60° C. for 30 sec, and sonicated for 15 mins (this cycle was repeated 10 times overall), and finally left overnight at room temperature to form a hydrogel.
A control using 1 mL of 0.1 M PBS (no inhibitor) was also prepared. The complexed amyloid/inhibitor materials were then transferred to 5 mL conical Eppendorf tubes, and centrifuged for 15 mins at 4,400 rpm (14° C.). The supernatant was decanted, and 2 mL of DI water were subsequently added to wash the pellet (followed by vortexing until obtaining a homogenous dispersion) in order to remove any unbound inhibitor. The samples were then centrifuged again at the same conditions so as to pelletize the amyloid materials, and the supernatant was decanted. Another 2 mL of DI water were then added into the pellet, the mixture was vortexed, and the physically bound inhibitor into the amyloid peptides was quantified by UV-Vis between 200-600 nm and MS. This step is denoted as wash 1 in our study. Two additional pellet purification cycles were realized with replacement of the decanted volume each time with 2 mL of fresh DI water (denoted as wash 2 and wash 3 respectively). The inhibitor-containing amyloid peptides were normalized at 400 nm over the respective no inhibitor-containing ones at the specific washing step.

[4] = YFTGAIIGNFY gel 5 mg/mL, by UV-Vis

COc1cc2c(cc1OC)C(=O)C(CC1CCN(Cc3ccccc3)CC1)C2 (centres unmarked) [donepezil]
AD compound captured, Wash 1 ([1]; FYTGAIIGNYF 1 mg/mL, by MS): 51 ± 3 µM | AD compound captured, Wash 2 ([1]; FYTGAIIGNYF 1 mg/mL, by MS): 47 ± 0 µM | AD compound captured, Wash 3 ([1]; FYTGAIIGNYF 1 mg/mL, by MS): 43 ± 4 µM | AD compound captured, Wash 1 ([1]; FYTGAIIGNYF 1 mg/mL, by UV-Vis): 33 µM | AD compound captured, Wash 1 ([1]; FYTGAIIGNYF 1 mg/mL, by UV-Vis, listed as Donepezil): 33 ± 4 µM | AD compound captured, Wash 2 ([1]; FYTGAIIGNYF 1 mg/mL, by UV-Vis): 28 ± 5 µM | AD compound captured, Wash 3 ([1]; FYTGAIIGNYF 1 mg/mL, by UV-Vis): 20 ± 5 µM | fraction of the 150 μM loaded drug incorporated into the peptide ([1]; FYTGAIIGNYF 1 mg/mL): approximately ⅕ | AD compound captured, Wash 1 ([2]; YFTGAIIGNFY 1 mg/mL, by MS): 43 ± 6 µM | AD compound captured, Wash 2 ([2]; YFTGAIIGNFY 1 mg/mL, by MS): 32 ± 4 µM | AD compound captured, Wash 3 ([2]; YFTGAIIGNFY 1 mg/mL, by MS): 21 ± 9 µM | AD compound captured, Wash 1 ([2]; YFTGAIIGNFY 1 mg/mL, by UV-Vis): 38 µM | AD compound captured, Wash 1 ([2]; YFTGAIIGNFY 1 mg/mL, by UV-Vis, listed as Donepezil): 38 ± 4 µM | AD compound captured, Wash 2 ([2]; YFTGAIIGNFY 1 mg/mL, by UV-Vis): 24 ± 4 µM | AD compound captured, Wash 3 ([2]; YFTGAIIGNFY 1 mg/mL, by UV-Vis): 5 ± 4 µM | fraction of the 150 μM loaded drug incorporated into the peptide ([2]; YFTGAIIGNFY 1 mg/mL): approximately ¼ | capturing efficiency ([3]; YFTGAIIGNFY 5 mg/mL): 14% | AD compound captured, Wash 1 ([3]; YFTGAIIGNFY gel 5 mg/mL, by MS): 154 ± 7 µM | AD compound captured, Wash 2 ([3]; YFTGAIIGNFY gel 5 mg/mL, by MS): 141 ± 10 µM | AD compound captured, Wash 3 ([3]; YFTGAIIGNFY gel 5 mg/mL, by MS): 129 ± 24 µM | AD compound captured, Wash 1 [3, 4]: 154 ± 11 µM | AD compound captured, Wash 2 [3, 4]: 135 ± 8 µM | AD compound captured, Wash 3 [3, 4]: 117 ± 5 µM

Nc1c2c(nc3ccccc13)CCCC2 [tacrine]
AD compound captured, Wash 1 ([1]; […] 1 mg/mL, by MS): 29 ± 4 µM | AD compound captured, Wash 2 ([1]; […] 1 mg/mL, by MS): 24 ± 8 µM | AD compound captured, Wash 3 ([1]; […] 1 mg/mL, by MS): 23 ± 6 µM | AD compound captured, Wash 2 ([1]; […] 1 mg/mL, by UV-Vis): 17 ± 4 µM | AD compound captured, Wash 3 ([1]; […] 1 mg/mL, by UV-Vis): 13 ± 3 µM | fraction of the 150 μM loaded drug incorporated into the peptide ([1]; […] 1 mg/mL): approximately 1/7 | AD compound captured, Wash 1 ([2]; […] 1 mg/mL, by MS): 37 ± 2 µM | AD compound captured, Wash 2 ([2]; […] 1 mg/mL, by MS): 2 ± 2 µM | AD compound captured, Wash 3 ([2]; […] 1 mg/mL, by MS): 0 µM | AD compound captured, Wash 1 ([2]; […] 1 mg/mL, by UV-Vis): 26 µM | AD compound captured, Wash 1 ([2]; […] 1 mg/mL, by UV-Vis, listed as Tacrine): 26 ± 2 µM | AD compound captured, Wash 2 ([2]; […] 1 mg/mL, by UV-Vis): 14 ± 2 µM | AD compound captured, Wash 3 ([2]; […] 1 mg/mL, by UV-Vis): 3 ± 2 µM | fraction of the 150 μM loaded drug incorporated into the peptide ([2]; […] 1 mg/mL): approximately ⅕ | capturing efficiency ([3]; […] 5 mg/mL): approximately 8% | AD compound captured, Wash 1 ([3]; […] gel 5 mg/mL, by MS): 98 ± 9 µM | AD compound captured, Wash 2 ([3]; […] gel 5 mg/mL, by MS): 75 ± 4 µM | AD compound captured, Wash 3 ([3]; […] gel 5 mg/mL, by MS): 63 ± 8 µM | AD compound captured, Wash 1 ([3]; […] gel 5 mg/mL, by UV-Vis): 90 ± 4 µM | AD compound captured, Wash 2 ([3]; […] gel 5 mg/mL, by UV-Vis): 80 ± 5 µM | AD compound captured, Wash 3 ([3]; […] gel 5 mg/mL, by UV-Vis): 73 ± 5 µM
